Source: US20170007615A1, “Antibacterial Compounds” (priority 2014, published 2017)
In brackets after ≈: the same amount, converted by molar mass. Where two headings read alike, the source gives them in different places.

Columns and labels:
[1] = tested on: H. influenzae (ATCC 49247); test: Antibacterial activity (MIC), Gram-negative type strain; type: cell-based, Haemophilus influenzae; conditions: Haemophilus influenzae, ATCC49247; Table 13
[2] = tested on: P. aeruginosa (ATCC 27853); conditions: Table 5
[3] = tested on: A. baumannii (ATCC 19606); conditions: Table 4
E. cloaceae (ATCC 13047) = conditions: Table 6
[4] = tested on: E. cloaceae drug resistant clinical isolates; test: Antibacterial activity (MIC) against drug resistant clinical isolates, alone and with PMBN; type: cell-based; conditions: for MIC: read-out: MIC Compound alone
E. coli (ATCC 25922) = test: microbe, parasite or virus in culture; conditions: Escherichia coli
[5] = tested on: P. aeruginosa (ATCC 27853); test: microbe, parasite or virus in culture; conditions: Pseudomonas aeruginosa, ATCC27853, read-out: MIC Compound alone
[6] = tested on: E. coli drug resistant clinical isolates; test: Antibacterial activity (MIC) against drug resistant clinical isolates, alone and with PMBN; type: cell-based; conditions: for MIC: Escherichia coli, read-out: MIC Compound alone

- MIC [1]: 0.015 µg/mL (≈ 0.0285 µM)
- MIC of Compound (μg/ml) in the presence of PMBN (128 μg/ml) [2]: <=0.008 μg/ml
- MIC of Compound (μg/ml) in the presence of PMBN (128 μg/ml) [3]: 0.03 µg/mL
- MIC of Compound (μg/ml) in the presence of PMBN (128 μg/ml) (E. cloaceae (ATCC 13047)): 0.25 µg/mL
- MIC of Compound (μg/ml) in the presence of PMBN (128 μg/ml) ([4]; E. cloaceae (MMX 6087)): 0.25 µg/mL
- MIC ([4]; E. cloaceae (MMX 6087)): > 64 µg/mL
- MIC of Compound (μg/ml) in the presence of PMBN (128 μg/ml) ([4]; E. cloaceae (MMX 6093)): 0.12 µg/mL
- MIC ([4]; E. cloaceae (MMX 6093)): 8 µg/mL (≈ 15.2 µM)
- MIC of Compound (μg/ml) in the presence of PMBN (128 μg/ml) ([4]; E. cloaceae (MMX 6095)): 1 µg/mL
- MIC ([4]; E. cloaceae (MMX 6095)): > 64 µg/mL
- MIC of Compound (μg/ml) in the presence of PMBN (128 μg/ml) ([4]; E. cloaceae (MMX 6304)): 0.25 µg/mL
- MIC ([4]; E. cloaceae (MMX 6304)): > 16 µg/mL
- MIC (E. coli (ATCC 25922); ATCC25922, read-out: MIC Compound alone, Table 1): 1 µg/mL (≈ 1.9 µM)
- MIC (E. coli (ATCC 25922); ATCC25922, read-out: MIC Compound alone, Table 2): 1 µg/mL (≈ 1.9 µM)
- MIC (E. coli (ATCC 25922); ATCC25922, read-out: MIC Compound alone, Table 3): 1 µg/mL (≈ 1.9 µM)
- MIC [5]: 4 µg/mL (≈ 7.61 µM)
- MIC of Compound (μg/ml) in the presence of PMBN (128 μg/ml) ([6]; E. coli (BAA200)): ≦0.008 μg/ml
- MIC of Compound (μg/ml) in the presence of PMBN (128 μg/ml) ([6]; E. coli (MMX 1312)): ≦0.008 μg/ml
- MIC of Compound (μg/ml) in the presence of PMBN (128 μg/ml) ([6]; E. coli (MMX 2232)): ≦0.008 μg/ml
- MIC of Compound (μg/ml) in the presence of PMBN (128 μg/ml) ([6]; E. coli (MMX 5743)): ≦0.008 μg/ml
- MIC of Compound (μg/ml) in the presence of PMBN (128 μg/ml) ([6]; E. coli (MMX 5771)): ≦0.12 μg/ml
- MIC of Compound (μg/ml) in the presence of PMBN (128 μg/ml) ([6]; E. coli (MMX 6413)): ≦0.12 μg/ml
- MIC of Compound (μg/ml) in the presence of PMBN (128 μg/ml) ([6]; E. coli (NCTC11954)): ≦0.008 μg/ml
- MIC of Compound (μg/ml) in the presence of PMBN (128 μg/ml) ([6]; E. coli (NCTC13351)): ≦0.12 μg/ml
- MIC of Compound (μg/ml) in the presence of PMBN (128 μg/ml) ([6]; E. coli (NCTC13352)): ≦0.008 μg/ml
- MIC of Compound (μg/ml) in the presence of PMBN (128 μg/ml) ([6]; E. coli (NCTC13353)): ≦0.008 μg/ml
- MIC of Compound (μg/ml) in the presence of PMBN (128 μg/ml) ([6]; E. coli (NCTC13400)): ≦0.008 μg/ml
- MIC of Compound (μg/ml) in the presence of PMBN (128 μg/ml) ([6]; E. coli (NCTC13441)): ≦0.12 μg/ml
- MIC of Compound (μg/ml) in the presence of PMBN (128 μg/ml) ([6]; E. coli (NCTC13450)): ≦0.12 μg/ml
- MIC of Compound (μg/ml) in the presence of PMBN (128 μg/ml) ([6]; E. coli (NCTC13461)): ≦0.12 μg/ml
- MIC of Compound (μg/ml) in the presence of PMBN (128 μg/ml) ([6]; E. coli (NCTC13462)): ≦0.008 μg/ml
- MIC of Compound (μg/ml) in the presence of PMBN (128 μg/ml) ([6]; E. coli (NCTC13463)): ≦0.008 μg/ml
- MIC of Compound (μg/ml) in the presence of PMBN (128 μg/ml) ([6]; E. coli (NCTC13476)): ≦0.12 μg/ml
- MIC ([6]; BAA200, E. coli (BAA200)): > 4 µg/mL
- MIC ([6]; E. coli (MMX 1312)): 16 µg/mL (≈ 30.4 µM)
- MIC ([6]; E. coli (MMX 2232)): 16 µg/mL (≈ 30.4 µM)
- MIC ([6]; E. coli (MMX 5743)): 4 µg/mL (≈ 7.61 µM)
- MIC ([6]; E. coli (MMX 5771)): > 64 µg/mL
- MIC ([6]; E. coli (MMX 6413)): > 64 µg/mL
- MIC ([6]; NCTC11954, E. coli (NCTC11954)): 2 µg/mL (≈ 3.8 µM)
- MIC ([6]; NCTC13351, E. coli (NCTC13351)): > 64 µg/mL
- MIC ([6]; NCTC13352, E. coli (NCTC13352)): 4 µg/mL (≈ 7.61 µM)
- MIC ([6]; NCTC13353, E. coli (NCTC13353)): 1 µg/mL (≈ 1.9 µM)
- MIC ([6]; NCTC13400, E. coli (NCTC13400)): > 4 µg/mL
- MIC ([6]; NCTC13441, E. coli (NCTC13441)): > 64 µg/mL
- MIC ([6]; NCTC13450, E. coli (NCTC13450)): > 64 µg/mL
- MIC ([6]; NCTC13461, E. coli (NCTC13461)): > 64 µg/mL
- MIC ([6]; NCTC13462, E. coli (NCTC13462)): > 4 µg/mL
- MIC ([6]; NCTC13463, E. coli (NCTC13463)): 2 µg/mL (≈ 3.8 µM)
- MIC ([6]; NCTC13476, E. coli (NCTC13476)): 8 µg/mL (≈ 15.2 µM)
Compound: CCNC(=O)Nc1nc2cc(-c3cnc(NS(=O)(=O)C(C)(C)C)nc3)cc(-c3ccc(C)cn3)c2s1 [Compound A-13, 1-[5-[2-(tert-Butylsulfonylamino)pyrimidin-5-yl]-7-(5-methyl-2-pyridyl)-1,3-benzothiazol-2-yl]-3-ethyl-urea]
